Laboratory results from patent US5530018A, “Meso-azanoradamantanes” (G. D. Searle & Co., priority 1994, dated 1996).
Entries after “also recorded” stand apart in the source; their conditions may differ. Structures can show the parent of a compound that is named as a salt.

Tests used:
[1] = biological target: T1, 5-HT4 receptor (Rattus norvegicus, UniProt Q62758); assay: cell-based; details: carbachol (3 μM)-contracted rat TMM, 37° C., tissues from 5 rats; read-out: 5-HT4 Agonism (Rat TMM) In Vitro Assay: EC50 values
T1 construct: One 2 cm segment of intrathoracic esophagus proximal to the diaphragm was removed from male rats; from tissue; host or cells: rat intrathoracic oesophagus, inner tunica muscularis mucosae
Method: (§1) 5-HT4 agonist activity was determined in the in vitro rat tunica muscularis mucosae (TMM) assay described herein. (Baxter et al., Naunyn Schmied Arch. Pharmacol, 1991, 343, 439). […] One with skill in the art could determine the activity of the compounds of the present invention using the methodology of these assays, described herein, without undue experimentation.
Schmied. Arch. Pharmacol. 343, 439 (1991)]. Agonist activity was determined utilizing relaxation of carbachol-contracted rat tunica muscularis mucosae (TMM). One 2 cm segment of intrathoracic esophagus proximal to the diaphragm was removed from male rats, weighing approximately 300 gm, and the outer muscle layers removed. The inner tunica muscularis mucosa was mounted under 0.2-0.3 g of tension in a tissue bath containing oxygenated Tyrode's solution at 37° C. […] Following a 30 minute equilibrium period, tissues were isometrically contracted with carbachol (3 μM) to obtain a tonic contraction. A stable plateau was obtained within 20 minutes when test compound was added cumulatively to relax the muscle strip. EC50 values were obtained for each agonist in tissues from 5 rats.

[2] = biological target: T2, 5-HT3 receptor (Rattus norvegicus, UniProt P35563); assay: 5-HT3 radioligand receptor binding, [3H]-GR65630, rat brain cortex membranes
T2 construct: Brain cortices were obtained from male rats and a membrane fraction prepared by standard techniques; from tissue; host or cells: rat brain cortex membranes
T2 sequence (P35563 24-483): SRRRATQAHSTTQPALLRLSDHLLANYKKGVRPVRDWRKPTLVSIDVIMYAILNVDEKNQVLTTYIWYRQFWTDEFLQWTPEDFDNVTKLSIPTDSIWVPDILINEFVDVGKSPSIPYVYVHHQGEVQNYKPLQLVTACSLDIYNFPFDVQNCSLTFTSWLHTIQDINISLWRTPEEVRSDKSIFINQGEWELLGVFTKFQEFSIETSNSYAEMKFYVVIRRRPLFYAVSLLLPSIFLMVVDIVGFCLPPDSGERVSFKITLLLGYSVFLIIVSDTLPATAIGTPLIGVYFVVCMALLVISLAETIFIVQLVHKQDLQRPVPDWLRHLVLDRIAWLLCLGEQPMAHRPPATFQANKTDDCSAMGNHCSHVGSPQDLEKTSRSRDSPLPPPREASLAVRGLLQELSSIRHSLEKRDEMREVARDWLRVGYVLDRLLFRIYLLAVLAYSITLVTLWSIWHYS
Method: as §1
Procedure: GR65630 binds to the 5-HT3 receptor. Brain cortices were obtained from male rats and a membrane fraction prepared by standard techniques. 0.04 mg of membrane prep was incubated with 0.2 nM [^3 H]-GR65630 for 66 minutes at 22° C. […] Membranes were filtered and washed 3 times and the filters were counted to determine [^3 H]-GR65630 specifically bound. [Kilpatrick GJ, Jones BJ and Tyers MB, Identification and Distribution of 5-HT3 Receptors in Rat Brain Using Radioligand Binding Assay, Nature 330, 746-748 (1987)].

[3] = test system: 5-HT4 receptor; details: mouse embryonic colliculi neurons; cited from earlier work
[4] = test system: myenteric neurons; details: cited from earlier work
[5] = test system: 5-HT4 receptors; details: cited from earlier work
[6] = test system: guinea pig stomach strips; details: in vitro; cited from earlier work
[7] = test system: gastric emptying; details: in vivo; cited from earlier work
[8] = test system: antroduodenal motility; details: dogs, cited from earlier work
[9] = test system: GI transit; details: mice; cited from earlier work
[10] = test system: 5-HT3; details: in vivo; cited from earlier work
[11] = test system: GI transit; details: cited from earlier work

T1 sequence (Q62758 whole entry): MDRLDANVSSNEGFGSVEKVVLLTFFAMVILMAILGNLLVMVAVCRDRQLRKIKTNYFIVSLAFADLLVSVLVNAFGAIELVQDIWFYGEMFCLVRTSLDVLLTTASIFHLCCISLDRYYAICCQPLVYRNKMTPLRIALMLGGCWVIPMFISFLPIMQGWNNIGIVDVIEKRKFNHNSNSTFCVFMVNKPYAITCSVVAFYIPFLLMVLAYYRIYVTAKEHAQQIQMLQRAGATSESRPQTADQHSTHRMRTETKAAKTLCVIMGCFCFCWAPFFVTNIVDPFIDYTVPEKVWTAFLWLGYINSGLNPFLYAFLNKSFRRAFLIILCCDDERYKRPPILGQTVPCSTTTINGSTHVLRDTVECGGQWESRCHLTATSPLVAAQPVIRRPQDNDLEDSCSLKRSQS

## COc1cc(NC(C)=O)c(Cl)cc1C(=O)N[C@@H]1[C@@H]2C[C@@H]3C[C@H]1CN3C2 [Example 2, Anti-4-(acetylamino)-5-chloro-N-(hexahydro-2,6-methano-1H-pyrrolizin-8-yl)-2-methoxybenzamide]
[1]
  EC50: > 10000 nM

## Cc1nc[nH]c1CCC(=O)c1cn(C)c2ccccc12 [GR65630]
[2]; [3H]-GR65630, rat brain cortex membranes
  Bmax: 154 fmol/mg protein
[2]; [3H]-GR65630, non-specific binding in presence of 1 uM ICS 205,930
  % Specific Binding: 70%

## COc1cc(N)c(Cl)cc1C(=O)NC1CCN2CCCC1C2 (stereo not shown) [BRL-24924]
[3]
  prokinetic activity correlated with agonist activity at 5-HT4 receptor: correlate with agonist activity at a novel 5-HT4 receptor subtype
[4]
  depolarization of myenteric neurons: depolarize myenteric neurons
[5]
  peristaltic reflex mediated through 5-HT4 receptors: mediated through agonism at 5-HT4 receptors

## CN1[C@@H]2CC[C@H]1C[C@@H](OC(=O)c1cc(Cl)cc(Cl)c1)C2 [MDL 72222]
[6]
  guinea pig stomach strip contraction: enhanced guinea pig stomach muscle strip contraction in vitro
[7]
  gastric emptying: increases in gastric emptying rates in vivo

## COc1cc(N)c(Cl)cc1C(=O)NC[C@H]1[C@@H]2C[C@@H]3C[C@H]1CN3C2 [Example 14, Syn-4-amino-5-chloro-N-(hexahydro-2,6-methano-1H-pyrrolizin-8-ylmethyl)-2-methoxybenzamide, monohydrochloride]
[1]
  EC50: 421 nM
[2]
  Ki: 1.1 nM

## COc1cc(N)c(Cl)cc1C(=O)NC1CCN(CCCOc2ccc(F)cc2)CC1OC (stereo not shown) [Cisapride]
[3]
  prokinetic activity correlated with agonist activity at 5-HT4 receptor: correlate with agonist activity at a novel 5-HT4 receptor subtype
[1]
  EC50: 55 nM
[4]
  depolarization of myenteric neurons: depolarize myenteric neurons
[8]
  antroduodenal motility: enhanced antroduodenal motility in dogs

## COc1cc(N)c(Cl)cc1C(=O)N[C@@H]1[C@@H]2C[C@@H]3C[C@H]1CN3C2 [Example 5, Anti-4-amino-5-chloro-N-(hexahydro-2,6-methano-1H-pyrrolizin-8-yl)-2-methoxybenzamide]
[1]
  EC50: 705 nM

## COc1cc(N)c(Cl)cc1C(=O)NC1CN2CCC1CC2 (stereo not shown) [zacopride]
[7]
  gastric emptying: enhanced gastric emptying

## COc1cc(N)c(Cl)cc1C(=O)NC[C@@H]1[C@@H]2C[C@@H]3C[C@H]1CN3C2 [Example 11, Anti-4-amino-5-chloro-N-(hexahydro-2,6-methano-1H-pyrrolizin-8-ylmethyl)-2-methoxybenzamide, monohydrochloride]
[1]
  EC50: 660 nM

## COc1cc(N)c(Cl)cc1C(=O)OC1C2CC3CC1CN3C2 (stereo not shown) [Example 13, (Hexahydro-2,6-methano-1H-pyrrolizin-8-yl) 4-amino-5-chloro-2-methoxybenzoate]
[1]
  EC50: 216 nM

## Cc1nccn1CC1CCc2c(c3ccccc3n2C)C1=O.Cl.O.O (stereo not shown) [SN-307]
[9]
  transit of a charcoal meal: enhanced transit of a charcoal meal in mice

## CCN(CC)CCNC(=O)c1cc(Cl)c(N)cc1OC [metoclopramide]
[6]
  guinea pig stomach strip contraction: enhanced electrical-field stimulated contractions in guinea pig stomach strips; also recorded: enhanced guinea pig stomach muscle strip contraction in vitro
[10]
  5-HT3 mediated Bezold Jarisch reflex: blocks the 5-HT3 mediated Bezold Jarisch reflex
[7]
  gastric emptying: increases in gastric emptying rates in vivo

## CN1[C@@H]2CC[C@H]1C[C@@H](OC(=O)c1c[nH]c3ccccc13)C2 [ICS 205,930]
[6]
  guinea pig stomach strip contraction: enhanced guinea pig stomach muscle strip contraction in vitro
[8]; coadministered with cisapride
  effect on responses to cisapride: did not affect the responses to cisapride when the agents were coadministered
[7]
  gastric emptying: increases in gastric emptying rates in vivo; also recorded: enhanced gastric emptying

## COc1cc(N)c(Cl)cc1C(=O)N[C@H]1[C@@H]2C[C@@H]3C[C@H]1CN3C2 [Example 3, Syn-4-amino-5-chloro-N-(hexahydro,2,6-methano-1H-pyrrolizin-8-yl)-2-methoxybenzamide]
[1]
  EC50: 2230 nM

## COc1cc(N)c(Cl)cc1C(=O)N[C@H]1[C@@H]2C[C@@H]3C[C@H]1CN3C2 [Example 4, Syn-4-amino-5-chloro-N-(hexahydro-2,6-methano-1H-pyrrolizin-8-yl)-2-methoxybenzamide, hydrochloride]
[1]
  EC50: 712 nM
[2]
  Ki: 22 nM

## NCCc1c[nH]c2ccc(O)cc12 [Serotonin, 5-hydroxytryptamine]
[5]
  peristaltic reflex mediated through 5-HT4 receptors: mediated through agonism at 5-HT4 receptors

## COc1cc(N)c(Cl)cc1C(=O)NCC1C2CC3CC1CN3C2 (stereo not shown) [Example 9, 4-Amino-5-chloro-N-(hexahydro,2,6-methano-1H-pyrrolizin-8-ylmethyl)-2-methoxybenzamide, monobydrochloride]
[1]
  EC50: 397 nM

## COc1cc(N)c(Cl)cc1C(=O)N[C@@H]1[C@@H]2C[C@@H]3C[C@H]1CN3C2 [Example 6, Anti-4-amino-5-chloro-N-(hexahydro-2,6-methano-1H pyrrolizin-8-yl)-2-methoxybenzamide, monohydrochloride]
[1]
  EC50: 382 nM
[2]
  Ki: 3.8 nM

## COc1cc(NC(C)=O)c(Cl)cc1C(=O)N[C@H]1[C@@H]2C[C@@H]3C[C@H]1CN3C2 [Example 1, Syn-4,(acetylamino)-5-chloro-N-(hexahydro-2,6-methano-1H-pyrrolizin8-yl)-2-methoxybenzamide]
[1]
  EC50: 3340 nM

## COc1cc(NC(C)=O)c(Cl)cc1C(=O)NCC1C2CC3CC1CN3C2 (stereo not shown) [Example 7, 4-(Acetylamino)-5-chloro-N-(hexahydro-2,6-methano-1H-pyrrolizin-8-ylmethyl)-2-methoxybenzamide, hydrochloride]
[1]
  EC50: ≥ 10000 nM

## Cc1nccn1CC1CCc2c(c3ccccc3n2C)C1=O (stereo not shown) [GR38032]
[11]; man (S. Gore et al.)
  GI transit / colonic transit: not only failed to accelerate GI transit, but in fact slowed colonic transit in man
[11]; man (Talley et al.)
  small intestinal transit times or mouth-to-cecum transit times: did not alter small intestinal transit times or mouth-to-cecumtransit times
[7]
  gastric emptying: enhanced gastric emptying
